Measurements: patent publication US20150133492A1, “N-desmethyldauricine, A Novel Autophagic Enhancer for Treatment of Cancers and Neurodegenerative Conditions Thereof” (Macau University of Science and Technology, priority 2013, published 2015)

Experiments:
[1] = test system: PC 12 cells; experiment: Crystal violet cell viability assay in PC-12; assay type: cell-based; details: 7.5 μM, 24 hours
Method: (§1) For cell viability assay measured by crystal violet staining, PC-12 cells were incubated in 35 mm disc followed by the addition of N-desmethyldauricine at 7.5 μM for 24 hours. The cells were then incubated with crystal violet for 10 minutes followed by a ddH2O wash. The stained cells image was captured by CCD digital camera Spot RT3™ under the Nikon ECLIPSE 80i microscope with 4× magnification. Cell viability was quantified by dissolving stained cells in 10% acetic acid (200 μL/well). The colorimetric reading of the solute mixture was then determined by spectrophotometer at OD 560 nm. The percentage of cell viability was calculated using the following formula: Cell viability (%)=Cells numbertreated/Cells numberDMSO control×100. Data was obtained from three independent experiments.

[2] = test system: HeLa cells; experiment: RT2 Profiler autophagy PCR array; assay type: cell-based, human
From the text: For PCR array analysis, N-desmethyldauricine treated HeLa cells were used to obtain the total RNA by Qiagen RNeasy® Mini Kit (Qiagen). The autophagy pathway specific RT-PCR array was used to evaluate the potential alterations of related genes after N-desmethyldauricine treatments in HeLa cells. The autophagy array comprised 87 genes selected based on their involvement in regulating autophagy induction. There were 5 housekeeping genes served as positive controls. Total RNA was reverse transcripted using the RT2 First Strand Kit. Real-time PCR reactions were carried out on ABI 7500 (Applied Biosystems) using the RT2 SYBR® Green qPCR Mastermix (Qiagen) according to manufacturer's instructions. Data analysis was performed using the Qiagen's integrated web-based software package for the PCR Array System, which automatically performs all ΔΔCt based fold-change calculations from raw threshold cycle data.

[3] = test system: panel of human cancer cells; experiment: MTT cytotoxicity assay, panel of human cancer cells; assay type: cell-based; details: 72 hours, read-out: mean IC50, cell cytotoxicity
Method: (§2) The test compound of N-desmethyldauricine was dissolved in DMSO at a final concentration of 100 mmol/L and stored at −20° C. Cytotoxicity was assessed using the 3-(4,5-dimethylthiazol-2-yl)-2,5-diphenyltetrazolium bromide assay as previously described^17. Cell number, 4000-8000 of HeLa (human cervical cancer), MCF-7 (human breast cancer), HepG2 (human liver cancer), Hep3B (human liver cancer), H1299 (human lung cancer), A549 (human lung cancer), PC3 (human prostate cancer), LLC-1 (mouse Lewis lung carcinoma) and LO2 (human normal liver) cells were seeded on 96-well plates per well, respectively. After overnight pre-incubation, the cells were exposed to different concentrations of N-desmethyldauricine (namely […], 0.039 μmol) for 3 days. Subsequently, 10 μL of MTT reagents was added to each well and incubated at 37° C. for 4 hours followed by the addition of 100 μL solubilization buffer (10% SDS in 0.01 mol/L HCl) and overnight incubation. Absorbance at 585 nm was determined from each well on the following day. The percentage of cell viability was calculated using the following formula: Cell viability (%)=Cells number treated/Cells number DMSO control×100. Data was obtained from three independent experiments.

[4] = test system: mutant huntingtin overexpressed PC 12 cells; experiment: Viability of mutant huntingtin overexpressed PC 12 cells; assay type: cell-based; details: PC 12, 7.5 μM
Method: as §1
PC 12 cells were transfected transiently with EGFP-HDQ23/55/74 (Q23, Q55, Q74) plasmids for 24 hours using Lipofectamine Plus LTX reagent (Invitrogen) according to the manufacturer's protocol. The transfected cells were then treated with N-desmethyldauricine for 24 hours. The removal of mutant huntingtin, (Q23, Q55, Q74) were then quantitated by immunoblotting with antibody against EGFP.

[5] = test system: human normal liver cells (LO2); experiment: MTT cytotoxicity assay, normal liver cells; assay type: cell-based; details: read-out: IC50, cytotoxic effect
Method: as §2

[6] = test system: HeLa cancer cells; experiment: Quantification of autophagy GFP-LC3 puncta in HeLa; assay type: cell-based, human; details: 10 μM, 4 hours, compared to DMSO control
Method: (§3) GFP-LC3 puncta formation was quantified as previously described^15. In brief, cells grown on coverslips in a 6-well plate were treated with or without 10 μM of N-desmethyldauricine for 4 hours, the cells were then fixed in 4% paraformaldehyde for 20 minutes at room temperature and then rinsed with PBS. Slides were mounted with FluorSave™ mounting media (Calbiochem, San Diego, Calif.) and examined by fluorescence microscopy. The number of GFP-positive cells with GFP-LC3 puncta formation was examined under the Nikon ECLIPSE 80i microscope. Representative images were captured with CCD digital camera Spot RT3™ (Diagnostic Instruments, Inc., Melville, N.Y.). To quantify for autophagy, the percentage of cells with punctate GFP-LC3 fluorescence was calculated by counting the number of the cells with punctate GFP-LC3 fluorescence in GFP-positive cells. A minimum of 150 cells from 3 randomly selected fields was scored.

[7] = test system: HeLa cancer cells; experiment: Transmission electron microscopy of autophagosomes/autolysosomes; assay type: cell-based, human; details: treated HeLa cancer cells
From the text: N-desmethyldauricine treated HeLa cells were fixed overnight with 2.5% glutaraldehyde followed by a buffer wash. Samples were post-fixed in 1% OsO4 and embedded in Araldite 502. Ultrathin sections were double stained with uranyl acetate and lead citrate, and analyzed by Philips CM 100 transmission electron microscope at a voltage of 80 kV.

[8] = test system: Atg7-knockout (Atg7−/−) mouse embryonic fibroblasts; experiment: GFP-LC3 puncta in Atg7 deficient MEFs; assay type: cell-based
Method: as §3, with “brief, both Atg7 wild-type and deficient mouse embryonic fibroblasts (MEFs)” for “brief, cells”, “with indicated concentrations” for “with or without 10 μM”, “of N-desmethyldauricine. Both Atg7 wild-type and deficient mouse embryonic fibroblasts” for “of N-desmethyldauricine for 4 hours, the cells”

Structure (SMILES): COc1cc2c(cc1OC)[C@@H](Cc1ccc(Oc3cc(C[C@H]4NCCc5cc(OC)c(OC)cc54)ccc3O)cc1)N(C)CC2 [N-desmethyldauricine]
- toxicity in PC 12 cells [1]: no toxicity
- gene regulation during autophagy induction [2]: regulation of a panel of genes, i.e. Igf1, Fam176a, Ulk1, PERK, Cxcr4 and p62
- IC50 [3]: 8.23 to 19.7 µM
- cell viability of mutant huntingtin overexpressed PC 12 cells [4]: enhance the cell viability
- huntingtin aggregates-mediated cytotoxicity [4]: reduce
- IC50 [5]: > 62.1 µM
- GFP-LC3 puncta formation [6]: significantly induced
- autophagosomes/autolysosomes by electron microscopy [7]: found
- GFP-LC3 puncta formation [8]: not
